Source: US10287258B2, “Certain (2S)-N-[(1S)-1-cyano-2-phenylethyl]-1,4-oxazepane-2-carboxamides as dipeptidyl peptidase 1 inhibitors” (AstraZeneca AB, priority 2014, dated 2019)

Target: recombinant human DPP1 (rhDPP1) (Homo sapiens (Human), UniProt P53634)
Assay: Test A1: Fluorescence assay for recombinant human (RH) DPP1
Format: biochemical
Details: Test A1 (Examples 1-35), rhDPP1 ~50 pM, 100 μM H-Gly-Arg-AMC, pH 5.0, 22° C.
Protocol: Test A1: Fluorescence Assay for Recombinant Human (RH) DPP1
The activity of DPP1 was determined by measuring the enzymatic release of aminomethyl coumarin (AMC) from the peptide substrate (H-Gly-Arg-AMC), which leads to an increase in fluorescence intensity at λex=350 nm and λem=450 nm. The assay was carried out in black 384 well plates in a final volume of 50 μl at 22° C. The assay conditions contained the following: 25 mM piperazine buffer pH 5.0; 50 mM NaCl, 5 mM DTT; 0.01% (v/v) Triton X-100; 100 μM H-Gly-Arg-AMC and rhDPP1 (˜50 pM). […] Routinely, inhibitors were pre-incubated with rhDPP1 for 30-60 min prior to the addition of the peptide substrate to start the reaction for a further 60 min at 22° C.

recombinant human DPP1 (rhDPP1), sequence (P53634 231-394): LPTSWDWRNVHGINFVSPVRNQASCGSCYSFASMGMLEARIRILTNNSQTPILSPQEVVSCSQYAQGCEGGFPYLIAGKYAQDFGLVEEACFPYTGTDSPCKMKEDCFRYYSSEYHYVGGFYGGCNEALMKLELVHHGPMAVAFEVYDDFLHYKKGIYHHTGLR
recombinant human DPP1 (rhDPP1), sequence (P53634 25-134): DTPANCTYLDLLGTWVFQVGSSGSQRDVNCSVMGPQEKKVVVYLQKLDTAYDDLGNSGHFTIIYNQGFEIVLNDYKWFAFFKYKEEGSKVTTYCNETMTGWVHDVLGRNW
recombinant human DPP1 (rhDPP1), sequence (P53634 395-463): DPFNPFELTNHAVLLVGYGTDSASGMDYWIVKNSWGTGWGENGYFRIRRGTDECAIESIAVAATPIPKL

| IC50 (read-out: DPP1 activity, pIC50 (converted)) | DPP1 activity, pIC50 | SMILES |
| --- | --- | --- |
| 0.0603 µM |  | N#Cc1ccc(-c2ccc(C[C@@H](C#N)NC(=O)C3CNCCCO3)cc2)cc1 (mixture of isomers) [Example 34, Diastereomeric mixture of (2S)-N-[(1S)-1-cyano-2-(4′-cyanobiphenyl-4-yl)ethyl]-1,4-oxazepane-2-carboxamide and (2R)—N-[(1S)-1-cyano-2-(4′-cyanobiphenyl-4-yl)ethyl]-1,4-oxazepane-2-carboxamide] |
|  | 8.2 | N#C[C@H](Cc1ccc(-c2ccc3oc(=O)n(CC4CC4)c3c2)cc1)NC(=O)[C@@H]1CNCCCO1 [Example 17, (2S)-N-[(1S)-1-Cyano-2-{4-[3-(cyclopropylmethyl)-2-oxo-2,3-dihydro-1,3-benzoxazol-5-yl]phenyl}ethyl]-1,4-oxazepane-2-carboxamide] |
|  | 8.5 | COCCn1c(=O)sc2ccc(-c3ccc(C[C@@H](C#N)NC(=O)[C@@H]4CNCCCO4)cc3)cc21 [Example 18, (2S)-N-[(1S)-1-Cyano-2-{4-[3-(2-methoxyethyl)-2-oxo-2,3-dihydro-1,3-benzothiazol-5-yl]phenyl}ethyl]-1,4-oxazepane-2-carboxamide] |
|  | 7.9 | CN1C(=O)COc2ccc(-c3ccc(C[C@@H](C#N)NC(=O)[C@@H]4CNCCCO4)cc3)cc21 [Example 20, (2S)-N-{(1S)-1-Cyano-2-[4-(4-methyl-3-oxo-3,4-dihydro-2H-1,4-benzoxazin-6-yl)phenyl]ethyl}-1,4-oxazepane-2-carboxamide] |
|  | 8.09 | COCCn1c(=O)oc2ccc(-c3ccc(C[C@@H](C#N)NC(=O)[C@@H]4CNCCCO4)cc3)cc21 [Example 21, (2S)-N-[(1S)-1-Cyano-2-{4-[3-(2-methoxyethyl)-2-oxo-2,3-dihydro-1,3-benzoxazol-5-yl]phenyl}ethyl]-1,4-oxazepane-2-carboxamide] |
|  | 7.71 | N#Cc1ccc(-c2ccc(C[C@@H](C#N)NC(=O)[C@@H]3CNCCCO3)cc2)s1 [Example 22, (2S)-N-{(1S)-1-Cyano-2-[4-(5-cyanothiophen-2-yl)phenyl]ethyl}-1,4-oxazepane-2-carboxamide] |
|  | 7.86 | Cn1c(=O)ccc2ccc(-c3ccc(C[C@@H](C#N)NC(=O)[C@@H]4CNCCCO4)cc3)cc21 [Example 24, (2S)-N-{(1S)-1-Cyano-2-[4-(1-methyl-2-oxo-1,2-dihydroquinolin-7-yl)phenyl]ethyl}-1,4-oxazepane-2-carboxamide] |
|  | 7.97 | N#C[C@H](Cc1ccc(-c2ccc3oc(=O)n(CC4CCOCC4)c3c2)cc1)NC(=O)[C@@H]1CNCCCO1 [Example 25, (2S)-N-[(1S)-1-Cyano-2-{4-[2-oxo-3-(tetrahydro-2H-pyran-4-ylmethyl)-2,3-dihydro-1,3-benzoxazol-5-yl]phenyl}ethyl]-1,4-oxazepane-2-carboxamide] |
|  | 7.87 | Cn1c(=O)oc2c(Cl)cc(-c3ccc(C[C@@H](C#N)NC(=O)[C@@H]4CNCCCO4)cc3)cc21 [Example 26, (2S)-N-{(1S)-2-[4-(7-Chloro-3-methyl-2-oxo-2,3-dihydro-1,3-benzoxazol-5-yl)phenyl]-1-cyanoethyl}-1,4-oxazepane-2-carboxamide] |
|  | 8.18 | N#C[C@H](Cc1ccc(-c2ccc3oc(=O)n(CC(F)F)c3c2)cc1)NC(=O)[C@@H]1CNCCCO1 [Example 27, (2S)-N-[(1S)-1-Cyano-2-{4-[3-(2,2-difluoroethyl)-2-oxo-2,3-dihydro-1,3-benzoxazol-5-yl]phenyl}ethyl]-1,4-oxazepane-2-carboxamide] |
|  | 8.09 | N#C[C@H](Cc1ccc(-c2ccc3oc(=O)n(CC(F)(F)F)c3c2)cc1)NC(=O)[C@@H]1CNCCCO1 [Example 28, (2S)-N-[(1S)-1-Cyano-2-{4-[2-oxo-3-(2,2,2-trifluoroethyl)-2,3-dihydro-1,3-benzoxazol-5-yl]phenyl}ethyl]-1,4-oxazepane-2-carboxamide] |
|  | 8.62 | Cn1c(=O)sc2ccc(-c3ccc(C[C@@H](C#N)NC(=O)[C@@H]4CNCCCO4)cc3)cc21 [Example 29, (2S)-N-{(1S)-1-Cyano-2-[4-(3-methyl-2-oxo-2,3-dihydro-1,3-benzothiazol-5-yl)phenyl]ethyl}-1,4-oxazepane-2-carboxamide] |
|  | 7.37 | N#C[C@H](Cc1ccc(-c2ccc(F)cc2)cc1)NC(=O)[C@@H]1CNCCCO1 [Example 32, (2S)-N-[(1S)-1-Cyano-2-(4′-fluorobiphenyl-4-yl)ethyl]-1,4-oxazepane-2-carboxamide] |
|  | 7.21 | N#C[C@H](Cc1ccc(-c2ccc3scnc3c2)cc1)NC(=O)[C@@H]1CNCCCO1 [Example 33, (2S)-N-{(1S)-2-[4-(1,3-Benzothiazol-5-yl)phenyl]-1-cyanoethyl}-1,4-oxazepane-2-carboxamide] |

Continued, compound first:

| SMILES | IC50 (read-out: DPP1 activity, pIC50 (converted)) | DPP1 activity, pIC50 |
| --- | --- | --- |
| Cc1noc2ccc(-c3ccc(C[C@@H](C#N)NC(=O)[C@@H]4CNCCCO4)cc3)cc12 [Example 5, (2S)-N-{(1S)-1-Cyano-2-[4-(3-methyl-1,2-benzoxazol-5-yl)phenyl]ethyl}-1,4-oxazepane-2-carboxamide] |  | 7.79 |
| N#C[C@H](Cc1ccc(-c2ccc(C(F)(F)F)cc2)cc1)NC(=O)[C@@H]1CNCCCO1 [Example 6, (2S)-N-{(1S)-1-Cyano-2-[4′-(trifluoromethyl)biphenyl-4-yl]ethyl}-1,4-oxazepane-2-carboxamide] |  | 7.44 |
| N#C[C@H](Cc1ccc(-c2ccc(F)c(F)c2)cc1)NC(=O)[C@@H]1CNCCCO1 [Example 7, (2S)-N-[(1S)-1-Cyano-2-(3′,4′-difluorobiphenyl-4-yl)ethyl]-1,4-oxazepane-2-carboxamide] |  | 7.16 |
| N#Cc1ccc(-c2ccc(C[C@@H](C#N)NC(=O)[C@@H]3CNCCCO3)cc2)cn1 [Example 8, (2S)-N-{(1S)-1-Cyano-2-[4-(6-cyanopyridin-3-yl)phenyl]ethyl}-1,4-oxazepane-2-carboxamide] |  | 7.06 |
| CN1C(=O)CSc2ccc(-c3ccc(C[C@@H](C#N)NC(=O)[C@@H]4CNCCCO4)cc3)cc21 [Example 9, (2S)-N-{(1S)-1-Cyano-2-[4-(4-methyl-3-oxo-3,4-dihydro-2H-1,4-benzothiazin-6-yl)phenyl]ethyl}-1,4-oxazepane-2-carboxamide] |  | 7.89 |
| CCn1c(=O)oc2c(C)cc(-c3ccc(C[C@@H](C#N)NC(=O)[C@@H]4CNCCCO4)cc3)cc21 [Example 10, (2S)-N-{(1S)-1-Cyano-2-[4-(3-ethyl-7-methyl-2-oxo-2,3-dihydro-1,3-benzoxazol-5-yl)phenyl]ethyl}-1,4-oxazepane-2-carboxamide] |  | 7.67 |
| CC(C)(O)Cn1c(=O)oc2ccc(-c3ccc(C[C@@H](C#N)NC(=O)[C@@H]4CNCCCO4)cc3)cc21 [Example 11, (2S)-N-[(1S)-1-Cyano-2-{4-[3-(2-hydroxy-2-methylpropyl)-2-oxo-2,3-dihydro-1,3-benzoxazol-5-yl]phenyl}ethyl]-1,4-oxazepane-2-carboxamide] |  | 7.05 |
| N#C[C@H](Cc1ccc(-c2cc(F)c3oc(=O)n(CC(F)F)c3c2)cc1)NC(=O)[C@@H]1CNCCCO1 [Example 12, (2S)-N-[(1S)-1-Cyano-2-{4-[3-(2,2-difluoroethyl)-7-fluoro-2-oxo-2,3-dihydro-1,3-benzoxazol-5-yl]phenyl}ethyl]-1,4-oxazepane-2-carboxamide] |  | 8.0 |
| CN1C(=O)C(F)(F)c2ccc(-c3ccc(C[C@@H](C#N)NC(=O)[C@@H]4CNCCCO4)cc3)cc21 [Example 14, (2S)-N-{(1S)-1-Cyano-2-[4-(3,3-difluoro-1-methyl-2-oxo-2,3-dihydro-1H-indol-6-yl)phenyl]ethyl}-1,4-oxazepane-2-carboxamide] |  | 7.78 |
| Cn1c(=O)oc2c(F)cc(-c3ccc(C[C@@H](C#N)NC(=O)[C@@H]4CNCCCO4)cc3)cc21 [Example 15, (2S)-N-{(1S)-1-Cyano-2-[4-(7-fluoro-3-methyl-2-oxo-2,3-dihydro-1,3-benzoxazol-5-yl)phenyl]ethyl}-1,4-oxazepane-2-carboxamide] |  | 8.29 |
| N#C[C@H](Cc1ccc(-c2ccc(S(=O)(=O)N3CCC3)cc2)cc1)NC(=O)[C@@H]1CNCCCO1 [Example 31, (2S)-N-{(1S)-2-[4′-(Azetidin-1-ylsulfonyl)biphenyl-4-yl]-1-cyanoethyl}-1,4-oxazepane-2-carboxamide] |  | 7.67 |
